# According to patent publication US20060194766A1, “Combinations comprising anti-epileptic drugs for the treatment of neurological disorders” (priority 2003, published 2006):
# Test system: MES-induced seizures
# Test: Maximal electroshock test (MES)-induced seizures in mice
# Format: in vivo
# Settings: for % animals protected from seizures: pre-treatment 1 h
# Method: Generalized tonic-clonic seizures are induced in mice by a maximal electroshock test (MES). In brief, seizures of the hind extremities of male Tif: MAGf (SPF) mice (19-25 g) are induced by passing alternating electrical current (50 Hz, 18 mA, 0.2 s) through temporal electrodes. The compounds and carbamazepine are suspended in 0.5% methyl cellulose for p.o. administration (doses for the compounds: 3.125, 6.25, 12.5 and 20.0 mg/kg p.o). The pre-treatment period for all compounds is 1 h. Ten animals per dose are used. For each experiment one group serves as a negative control (placebo). The number of animals protected from tonic hind limb extension seizure is determined in each dose and combination group.
compound,measurement,setting,value
NC(=O)N1c2ccccc2C=Cc2ccccc21 [Carbamazepine],% animals protected from seizures,"Carbamazepine 7.5 mg/kg combined with Compound 1, 3.125 mg/kg p.o.",40%
same,% animals protected from seizures,Carbamazepine 7.5 mg/kg p.o. combined with placebo,0%
same,% animals protected from seizures,"Carbamazepine 12.5 mg/kg combined with Compound 1, 3.125 mg/kg p.o.",80%
same,% animals protected from seizures,"Carbamazepine 12.5 mg/kg combined with Compound 1, 6.25 mg/kg p.o.",90%
same,% animals protected from seizures,"Carbamazepine 20.0 mg/kg combined with Compound 1, 6.25 mg/kg p.o.",100%
same,% animals protected from seizures,Carbamazepine 20.0 mg/kg p.o. combined with placebo,80%
same,% of the mice protected,"carbamazepine combined with placebo, doses of 7.5 to 20.0 mg/kg p.o.",up to 80%
